Measurements taken from patent publication US9388112B2, “Bisphenol derivatives and their use as androgen receptor activity modulators” (The University of British Columbia, priority 2010, dated 2016).

Target: T1, androgen receptor (AR) (Homo sapiens, UniProt P10275, T878A)
T1 construct: LNCaP cells express endogenous AR; endogenous in cells; host or cells: LNCaP cells
T1 sequence (P10275 1-920 T878A): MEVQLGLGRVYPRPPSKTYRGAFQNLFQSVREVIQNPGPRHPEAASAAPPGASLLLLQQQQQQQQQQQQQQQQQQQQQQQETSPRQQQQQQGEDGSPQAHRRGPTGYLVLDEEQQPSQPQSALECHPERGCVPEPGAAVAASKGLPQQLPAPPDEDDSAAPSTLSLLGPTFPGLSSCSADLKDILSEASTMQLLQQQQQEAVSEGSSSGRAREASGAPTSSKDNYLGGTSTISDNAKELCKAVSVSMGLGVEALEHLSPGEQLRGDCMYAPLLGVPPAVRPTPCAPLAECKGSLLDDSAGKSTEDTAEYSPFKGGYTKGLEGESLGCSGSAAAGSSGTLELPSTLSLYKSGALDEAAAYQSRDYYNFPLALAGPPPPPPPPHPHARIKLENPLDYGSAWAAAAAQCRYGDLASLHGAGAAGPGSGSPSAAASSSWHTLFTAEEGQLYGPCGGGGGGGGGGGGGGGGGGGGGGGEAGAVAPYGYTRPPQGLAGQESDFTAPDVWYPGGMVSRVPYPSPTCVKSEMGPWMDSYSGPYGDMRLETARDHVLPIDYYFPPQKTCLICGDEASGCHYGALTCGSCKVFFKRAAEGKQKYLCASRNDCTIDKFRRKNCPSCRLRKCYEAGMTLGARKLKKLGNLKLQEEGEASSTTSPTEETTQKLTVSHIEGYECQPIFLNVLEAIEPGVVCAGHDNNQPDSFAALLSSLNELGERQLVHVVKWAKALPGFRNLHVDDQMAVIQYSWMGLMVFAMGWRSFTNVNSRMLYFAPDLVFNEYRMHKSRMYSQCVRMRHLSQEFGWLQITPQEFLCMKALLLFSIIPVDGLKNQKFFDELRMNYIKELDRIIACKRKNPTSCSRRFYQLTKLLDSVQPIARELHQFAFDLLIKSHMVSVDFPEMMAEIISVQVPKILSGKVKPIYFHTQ
Test: LNCaP PSA (6.1 kb)-luciferase assay (R1881-induced)
Format: cell-based
Conditions: for androgen receptor modulating activity: LNCaP PSA (6.1 kb)-luciferase assay, versus DMSO and EPI-001 controls; for EXPERIMENTAL DATA (activity in the described assays): LNCaP cells transfected with PSA (6.1 kb)-luciferase, 1 h pre-treatment, R1881 1 nM, 48 h
Description: LNCaP cells were employed initially for all experiments because they are well-differentiated human prostate cancer cells in which ligand-independent activation of the AR by FSK has been characterized (Nazareth et al 1996 J. Biol. Chem. 271, 19900-19907; and Sadar 1999 J. Biol. Chem. 274, 7777-7783). LNCaP cells express endogenous AR and secrete prostate-specific antigen (PSA) (Horoszewicz et al 1983 Cancer Res. 43, 1809-1818). LNCaP cells can be grown either as monolayers in cell culture or as tumors in the well-characterized xenograft model that progresses to androgen independence in castrated hosts (Sato et al 1996 J. Steroid Biochem. Mol. Biol. 58, 139-146; Gleave et al 1991 Cancer Res. 51, 3753-3761; Sato et al 1997 Cancer Res. 57, 1584-1589; and Sadar et al 2002 Mol. Cancer Ther. 1(8), 629-637). […] Small molecules that specifically target the AR-NTD should have no effect on PC3 cells. This means that they should not alter the proliferation of PC3 cells if they specifically block the AR to mediate their inhibitory effects. R1881 was employed since it is stable and avoids problems associated with the labile physiological ligand dihydrotestosterone (DHT). Reporter specificity may be determined using several alternative reporter gene constructs. Some well characterized ARE-driven reporter gene constructs that have been used extensively are the PSA (6.1 kb) enhance/promoter which contains several AREs and is highly inducible by androgens as well as by FSK (Ueda et al 2002 A J. Biol. Chem. 277, 7076-7085) and the ARR3-thymidine kinase (tk)-luciferase, which is an artificial reporter construct that contains three tandem repeats of the rat probasin ARE1 and ARE2 regions upstream of a luciferase reporter (Snoek et al 1996 J. Steroid Biochem. Mol. Biol. 59, 243-250).
LNCaP cells were transiently cotransfected with PSA (6.1 kb)-luciferase (0.25 μg/well) in 24-well plates for 24 h prior to pre-treatment with compounds for 1 hour before the addition of synthetic androgen, R1881 (1 nM) to induce PSA production or vehicle. The total amount of plasmid DNA transfected was normalized to 0.75 μg/well by the addition of the empty vector. After 48 h of incubation with R1881, the cells were harvested, and relative luciferase activity was determined. Test compounds were added to the cells at various concentrations and activity for each treatment was normalized to the predicted maximal activity induction (in the absence of test compounds, vehicle only). Plotting of sigmoidal curves (Boltzmann Function) and IC50 calculations were done using OriginPro 8.1 Sofware (Northampton, Mass., USA).
Using the LNCaP PSA (6.1 kb)-luciferase assay described above, various compounds described herein were tested against DMSO and EPI-001 controls. In FIG. 1, a comparison is made between EPI-035 and DMSO and EPI-001 or EPI-026 from 1 μM to 10 μM. […] In FIGS. 3A and 3B, EPI-040 and EPI-051 are compared to DMSO and EPI-001 at 1 μM to 30 μM and 2.5 μM to 35 μM respectively. In FIGS. 4A and 4B, EPI-043 is compared to DMSO and EPI-001 at 5 μM to 35 μM 0.25 μM to 25 μM respectively.
Similarly, in FIG. 7B concentrations of EPI-6000, EPI-6001, EPI-6002, and EPI-6003 are shown at 12.5 μM and 25 μM as compared to the DMSO control.

SMILES	androgen receptor modulating activity	EXPERIMENTAL DATA (activity in the described assays)	further results
CC(C)(c1ccc(OCC(O)CCl)cc1)c1ccccc1OCC(O)CO (stereo not drawn) [EPI-6003]	showed androgen receptor modulating activity		
C#CCOc1ccc(C(C)(C)c2ccc(OC[C@H](O)CCl)cc2)cc1 [EPI-047]	showed androgen receptor modulating activity		
CC(C)(c1ccc(O)cc1)c1ccc(OCCOCCOCCO)cc1 [EPI-040]	showed androgen receptor modulating activity		
CC(=O)OCCOc1ccc(C(C)(C)c2ccc(OCCCCl)cc2)cc1 [EPI-037]	showed androgen receptor modulating activity		
OC(CCl)COc1ccccc1Cc1ccccc1OCC(O)CCl (stereo not drawn) [EPI-900]	showed androgen receptor modulating activity		dose response as compared to the DMSO control (FIG. 7A, 1 μM to 35 μM): showed a dose response
C#CCOc1ccc(C(C)(C)c2ccc(OCC(O)CO)cc2)cc1 (stereo not drawn) [EPI-051]	showed androgen receptor modulating activity		
C#CCOc1ccc(C(C)(C)c2ccc(OC[C@@H](O)CCl)cc2)cc1 [drawing 875]		Active	
C#CCOc1ccc(C(C)(C)c2ccc(OCC(O)CO)cc2)cc1 (centres unmarked) [drawing 877]		Active	
CC(C)(c1ccc(OCCCCl)cc1)c1ccc(OCCCCl)cc1 [EPI-038]	showed androgen receptor modulating activity		
OC(CCl)COc1ccccc1Cc1ccccc1OCC(O)CCl (centres unmarked) [drawing 878]		Active	
CC(C)(c1ccc(OCCCCCCCl)cc1)c1ccc(OCCOCCOCCO)cc1 [EPI-043]	showed androgen receptor modulating activity		
CC(C)(c1ccc(OCC(O)CCl)cc1)c1ccccc1OCC(O)CO (centres unmarked) [drawing 879]		Active	
CC(C)(c1ccc(OCC(O)CCl)cc1)c1ccccc1OCC(O)CO (stereo not drawn) [EPI-6001]	showed androgen receptor modulating activity		
CC(C)(c1ccc(OCCO)cc1)c1ccc(OCCCCl)cc1 [drawing 869]		Active	
CC(C)(c1ccc(OCCO)cc1)c1ccc(OCCCCl)cc1 [EPI-035]	showed androgen receptor modulating activity		
CC(=O)OCCOc1ccc(C(C)(C)c2ccc(OCCCCl)cc2)cc1 [drawing 870]		Active	
CC(C)(c1ccc(OCC(O)CCl)cc1)c1ccccc1OCC(O)CO (stereo not drawn) [EPI-6000]	showed androgen receptor modulating activity		
C#CCOc1ccc(C(C)(C)c2ccc(OC[C@@H](O)CCl)cc2)cc1 [EPI-046]	showed androgen receptor modulating activity		
CC(C)(c1ccc(OCC(O)CCl)cc1)c1ccccc1OCC(O)CO (stereo not drawn) [EPI-6002]	showed androgen receptor modulating activity		
C#CCOc1ccc(C(C)(C)c2ccc(OC[C@H](O)CCl)cc2)cc1 [drawing 876]		Active	
CC(C)(c1ccc(OCCCCCCCl)cc1)c1ccc(OCCOCCOCCO)cc1 [drawing 874]		Active	
CC(C)(c1ccc(OCCCCl)cc1)c1ccc(OCCCCl)cc1 [drawing 871]		Active	
